Measurements from patent US6649565B1, “Selective herbicides on the basis of a substituted phenylsulfonylaminocarbonyltriazolinone and safeners” (Bayer Aktiengesellschaft, priority 1999, dated 2003).

Key:
[1] = tested on: wheat of the cultivar Orestis; assay: Post-emergence test/greenhouse, damage to crop plant wheat; assay type: in vivo; conditions: greenhouse, after approx. 18 days
Description: (§1) The active compounds in question were used in the form of customary formulations. The sodium salt of the compound of the formula (I) was applied as 70 WG or 70 WP, mefenpyr-diethyl was applied as 100 EC and fenchlorazole-ethyl and cloquintocetmexyl were applied as a laboratory formulation of the active compound produced by ourselves. The active compounds and, if appropriate, the safeners were used to prepare an aqueous spray liquor comprising 0.1% of the additive Renex-36.
(§2) The active compound preparation is used to spray test plants which were grown in 10×10 cm pots (growth medium: soil or vermiculte), such that the particular amounts of active compound desired are applied per unit area. The concentration of the spray liquor is chosen such that the particular amounts of active compound desired are applied in […].
(§3) After approximately 18 days the degree of damage to the crop plants was rated in % damage in comparison with the development of the untreated control.
(§4) 0%=no damage (like untreated control)
(§5) 100%=total destruction/damage
(§6) Active compounds, application rates, test plants and results are shown in the tables below, the terms used in the tables having the following meaning:
wheat=wheat of the cultivar Orestis
(§7) a.i.=active ingredient=active compound/safener

[2] = tested on: barley of the cultivar Coronar; assay: Post-emergence test/greenhouse, damage to crop plant barley; assay type: in vivo; conditions: greenhouse, after approx. 18 days
Description: as §1, §2, §3, §4, §5, §6
barley=barley of the cultivar Coronar
as §7

CCCOc1nn(C(=O)[N-]S(=O)(=O)c2ccccc2C(=O)OC)c(=O)n1C.[Na+]
Damage wheat ([1]; Table A1, 90 g of a.i./ha): 20% | Damage wheat ([1]; Table A1, 180 g of a.i./ha): 30% | Damage wheat ([1]; Table A2, 60 g of a.i./ha): 20% | Damage wheat ([1]; Table A2, 125 g of a.i./ha): 30% | Damage wheat ([1]; Table A2, 250 g of a.i./ha): 50% | Damage wheat ([1]; Table A3, 30 g of a.i./ha): 5% | Damage wheat ([1]; Table A3, 60 g of a.i./ha): 10% | Damage wheat ([1]; Table A3, 125 g of a.i./ha): 50% | Damage wheat ([1]; Table A4, 60 g of a.i./ha): 30% | Damage wheat ([1]; Table A4, 125 g of a.i./ha): 40% | Damage wheat ([1]; Table A7, 60 g of a.i./ha): 20% | Damage wheat ([1]; Table A7, 125 g of a.i./ha): 30% | Damage wheat ([1]; Table A7, 250 g of a.i./ha): 50% | Damage wheat ([1]; Table A8, 30 g of a.i./ha): 5% | Damage wheat ([1]; Table A8, 60 g of a.i./ha): 10% | Damage wheat ([1]; Table A8, 125 g of a.i./ha): 50% | Damage barley ([2]; Table A5, 15 g of a.i./ha): 50% | Damage barley ([2]; Table A5, 30 g of a.i./ha): 70% | Damage barley ([2]; Table A5, 60 g of a.i./ha): 70% | Damage barley ([2]; Table A6, 8 g of a.i./ha): 50% | Damage barley ([2]; Table A6, 15 g of a.i./ha): 50% | Damage barley ([2]; Table A6, 30 g of a.i./ha): 60% | Damage barley ([2]; Table A6, 60 g of a.i./ha): 60% | Damage barley ([2]; Table A9, 15 g of a.i./ha): 50% | Damage barley ([2]; Table A9, 30 g of a.i./ha): 70% | Damage barley ([2]; Table A9, 60 g of a.i./ha): 70%
